According to article PMC7747594, “Protease-activated receptor-2 ligands reveal orthosteric and allosteric mechanisms of receptor inhibition” (Communications Biology, 2020):
Several values for one entry are separate records, joined by “and”; a condition that tells them apart may be missing. Identical values can stand only once. Entries after “also recorded” stand apart in the source; their conditions may differ.

Tests used:
Format in all cases: cell-based
[1] = target: T1, hPAR2 (Homo sapiens, UniProt P55085); assay: Ca^2+ flux assay, inhibition of trypsin activation in 1321N1-hPAR2 cells (with 1 µM Vorapaxar)
T1 sequence (P55085 26-397): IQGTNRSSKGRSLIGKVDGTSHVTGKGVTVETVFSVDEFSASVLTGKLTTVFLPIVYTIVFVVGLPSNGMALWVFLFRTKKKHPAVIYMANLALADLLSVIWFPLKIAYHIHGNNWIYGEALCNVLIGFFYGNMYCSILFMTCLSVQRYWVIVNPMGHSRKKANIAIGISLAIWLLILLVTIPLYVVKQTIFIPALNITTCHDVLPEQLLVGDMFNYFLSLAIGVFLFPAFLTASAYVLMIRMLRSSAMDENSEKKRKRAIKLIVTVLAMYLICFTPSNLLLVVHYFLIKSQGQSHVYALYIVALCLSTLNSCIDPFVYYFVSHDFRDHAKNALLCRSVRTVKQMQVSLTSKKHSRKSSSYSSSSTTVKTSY

[2] = target: T1, hPAR2; assay: Ca^2+ flux assay, agonist mode, 1321N1-hPAR2 cells; details: for Ca^2+ mobilisation tested as agonist, Fig 1c source data: log[compound], individual data points
Experimental: (§1) Cells were loaded with Fluo-8 NW calcium dye (AAT Bioquest) for 30 min at 37 °C before compounds in Hank’s balanced salt solution (HBSS, ThermoFisher Scientific) with 20 mM HEPES (ThermoFisher Scientific), 0.1% bovine serum albumin (BSA, Sigma) and 0.5% DMSO were added and simultaneously evaluated for changes in intracellular [Ca^2+] using FLIPR TETRA (Molecular Devices) to detect agonism. For each concentration, the difference between the maximum peak Ca^2+ response and baseline response is reported. […] Antagonism experiments were also carried out on 1321N1-PAR2[WT], 1321N1-PAR2[F154A], and 1321N1-PAR2[G157C] as described. Experiments with trypsin in 1321N1-hPAR2 cells were performed in the presence of 1 µM Vorapaxar (Chemtronica) to remove any interference of PAR1 activity. […] Antagonism experiments for CHO-hPAR2 and HT-29 cells were performed in 96-well plates at 30,000 cells/well. Cells were loaded with Fluo-3 AM calcium dye (Sigma-Aldrich) for 60 min at 37 °C in HBSS with 1% FBS, 0.2% pluronic acid, 20 mM HEPES and 2.5 mM probenecid prior to the addition of antagonist. The antagonist was pre-incubated for 60 min at 37 °C followed by the addition of bovine trypsin (30 nM) at EC80. Intracellular [Ca^2+] flux was measured using FLIPR TETRA (Molecular Devices) and the difference between the maximum peak Ca^2+ response and baseline response is reported.
(§2) Binding data were analysed using the One site – Fit Ki model in GraphPad Prism 8 (GraphPad Software) to determine binding affinity. Pharmacology in vitro potency data was analysed with a 4-parameter logistic fit using the equation y = Bottom + (Top − Bottom)/[…] where y is the response, x is the 10-logarithm of the drug concentration, Bottom is no response and Top is full response in GraphPad Prism 8 or Genedata Screener (Genedata). pEC50 and pIC50 data are presented as mean ± standard error of the mean (s.e.m.) derived from the number of independent experiments stated. Schild slope analysis was calculated using Graphpad Prism 8 Gaddum/Schild EC50 global fitting (shared model parameters between all data sets) competitive model. […] Schild slope quantifies the shifts in agonist response in the presence of antagonist, a Schild slope of 1 indicates the antagonist is competitive and extra-sum-of-squares F-test (p < 0.05) was used to compare the calculated Schild slope against a hypothetical Schild slope of 1. […] The relative activity was calculated using (EmaxEC50’)/(Emax’EC50) with the Hill slope help constant at 1. EC50’ and Emax’ denote the EC50 and Emax in the absence of allosteric modulator, while EC50 and Emax denote those measured in the presence of allosteric modulator. When the Hill slope = 1, the relative activity plot approaches an asymptote corresponding to the estimate of the γ value.

[3] = target: T1, hPAR2; assay: Ca^2+ flux assay (FLIPR), inhibition of SLIGRL-NH2 activation in 1321N1-hPAR2 cells
Experimental: as §1, §2

[4] = target: T2, rat PAR2 (Rattus norvegicus, UniProt Q63645); assay: Ca^2+ flux assay, inhibition of SLIGRL-NH2 activation in rat KNRK cells
T2 construct: a rat KNRK cell line with endogenous expression of rat PAR2; host or cells: rat KNRK cells
T2 sequence (Q63645 26-397): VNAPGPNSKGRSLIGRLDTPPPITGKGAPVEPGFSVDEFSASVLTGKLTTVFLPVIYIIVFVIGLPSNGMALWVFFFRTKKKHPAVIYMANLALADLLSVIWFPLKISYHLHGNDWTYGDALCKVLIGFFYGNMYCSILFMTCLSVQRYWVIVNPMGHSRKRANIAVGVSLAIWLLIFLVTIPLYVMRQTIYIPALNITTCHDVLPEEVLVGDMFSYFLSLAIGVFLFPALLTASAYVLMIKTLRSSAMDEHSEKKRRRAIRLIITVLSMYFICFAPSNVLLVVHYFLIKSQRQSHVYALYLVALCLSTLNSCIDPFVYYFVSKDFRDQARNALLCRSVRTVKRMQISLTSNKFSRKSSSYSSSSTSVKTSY

[5] = target: T1, hPAR2; assay: IP1 HTRF assay, inhibition of SLIGRL-NH2 in 1321N1-hPAR2 cells
Experimental: Inhibition of PAR2-induced inositol-1-phosphate (IP1) production was measured in 1321N1-hPAR2 cells using IP-One Gq HTRF assay kit (Cisbio). […] Next, EC80 of SLIGRL-NH2 (70 µM) supplemented with 50 mM LiCl was added and incubated for 60 min at 37 °C. Detection of IP1 production was performed according to the manufacturer’s protocol and HTRF was measured using PHERAstar (BMG LabTech). Data were normalised to [IP1] using a standard curve.
as §2

With `CCCc1cc(F)ccc1C(O)c1ncc[nH]1` (stereo not shown) [AZ8838] the IC50 [1] was 3.98 µM, the “shape of inhibition of trypsin-induced Ca^2+ mobilisation” value ([1]; 1321N1-hPAR2 cells, 1 µM Vorapaxar) was “sigmoidal and monophasic” and the remaining activity at 1.318 µM ([1]; read-out: trypsin Ca^2+ mobilisation, antagonist response, Fig 1g source data, log[compound], M -5.88008, individual data points) was 86.9%. For the same molecule, the remaining activity at 0.1318 µM ([1]; read-out: trypsin Ca^2+ mobilisation, antagonist response, Fig 1g source data, log[compound], M -6.88008, individual data points) was 93.7%, the remaining activity at 0.04169 µM ([1]; read-out: trypsin Ca^2+ mobilisation, antagonist response, Fig 1g source data, log[compound], M -7.37997, individual data points) was 93.1% and the remaining activity at 0.01318 µM ([1]; read-out: trypsin Ca^2+ mobilisation, antagonist response, Fig 1g source data, log[compound], M -7.88008, individual data points) was 97.5%. The “Ca^2+ mobilisation tested as agonist, Fig 1c source data” value (from here on “Ca^2+ mobilisation tested as agonist”) ([2]; M -4.38018) was 2.862 and -0.09582 and -3.103 and -1.512 and -1.8855, the “Ca^2+ mobilisation tested as agonist” value ([2]; M -4.88008) was -0.3654 and 0.4152 and -1.57 and -6.425 and -2.983 and the “Ca^2+ mobilisation tested as agonist” value ([2]; M -5.38018) was 1.583 and 0.2874 and -4.491 and -0.4535 and -1.063. The “Ca^2+ mobilisation tested as agonist” value ([2]; M -5.88008) was 3.532 and 5.014 and 4.491 and 1.663 and -0.1714, the “Ca^2+ mobilisation tested as agonist” value ([2]; M -6.38007) was 1.035 and 1.437 and 3.98 and 0.4535 and 1.817 and the “Ca^2+ mobilisation tested as agonist” value ([2]; M -6.88008) was 1.705 and 1.246 and -5.002 and 2.343 and 3.3939. For the same molecule, the “Ca^2+ mobilisation tested as agonist” value ([2]; M -7.37997) was 2.862 and -1.309 and -0.8397 and 2.948 and 1.406, the “Ca^2+ mobilisation tested as agonist” value ([2]; M -7.88008) was 2.375 and -2.268 and 1.1318 and 4.308 and 1.268 and the “Ca^2+ mobilisation tested as agonist” value ([2]; M -8.37986) was -1.218 and 0.543 and 2.665 and 1.436 and 3.188. For the same molecule, the “Ca^2+ mobilisation tested as agonist” value ([2]; M -8.87976) was 4.6285 and 0.6707 and 4.491 and -8.012 and -2.845, the “agonist activity (tested as agonists)” value ([2]; Ca^2+ assay and other signalling assays) was “no effect; also recorded: no agonist activity” and the IC50 [3] was 2000 nM. It also gave a remaining activity at 1.318 µM ([3]; read-out: SLIGRL-NH2 Ca^2+ mobilisation, antagonist response, Fig 1c source data, log[compound], M -5.88008, individual data points) of 77.3%, a remaining activity at 0.4168 µM ([3]; read-out: SLIGRL-NH2 Ca^2+ mobilisation, antagonist response, Fig 1c source data, log[compound], M -6.38007, individual data points) of 83% and a remaining activity at 0.1318 µM ([3]; read-out: SLIGRL-NH2 Ca^2+ mobilisation, antagonist response, Fig 1c source data, log[compound], M -6.88008, individual data points) of 101%. It also gave a remaining activity at 0.04169 µM ([3]; read-out: SLIGRL-NH2 Ca^2+ mobilisation, antagonist response, Fig 1c source data, log[compound], M -7.37997, individual data points) of 90.3%, a remaining activity at 0.01318 µM ([3]; read-out: SLIGRL-NH2 Ca^2+ mobilisation, antagonist response, Fig 1c source data, log[compound], M -7.88008, individual data points) of 91.2% and a remaining activity at 0.00417 µM ([3]; read-out: SLIGRL-NH2 Ca^2+ mobilisation, antagonist response, Fig 1c source data, log[compound], M -8.37986, individual data points) of 97.2%. It also gave a remaining activity at 0.001319 µM ([3]; read-out: SLIGRL-NH2 Ca^2+ mobilisation, antagonist response, Fig 1c source data, log[compound], M -8.87976, individual data points) of 102%, an IC50 [4] of 5.01 µM and an IC50 [5] of 1450 nM. For the same molecule, the remaining activity at 3.163 µM ([5]; read-out: SLIGRL-NH2 IP1 formation, antagonist response, Fig 1d source data, log[compound], M -5.4999, individual data points) was 40.7%, the remaining activity at 1 µM ([5]; read-out: SLIGRL-NH2 IP1 formation, antagonist response, Fig 1d source data, log[compound], M -6, individual data points) was 54.4% and the remaining activity at 0.3164 µM ([5]; read-out: SLIGRL-NH2 IP1 formation, antagonist response, Fig 1d source data, log[compound], M -6.49976, individual data points) was 79.9%. It also gave a remaining activity at 0.03164 µM ([5]; read-out: SLIGRL-NH2 IP1 formation, antagonist response, Fig 1d source data, log[compound], M -7.49976, individual data points) of 108%.
